Data: the supplement of paper PMC10307832

Key:
Test in all cases: relative viability (nuclei count vs DMSO), 5 days (fraction); higher = more cells survive
Carboplatin + Linsitinib = compound: C1CC(C1)(C(=O)O)C(=O)O.[NH2-].[NH2-].[Pt+2] [Carboplatin] + C[C@]1(O)C[C@@H](c2nc(-c3ccc4ccc(-c5ccccc5)nc4c3)c3c(N)nccn32)C1 [Linsitinib] (partner 1 µM)
Method in brief: (§1)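 Lung cancer cell lines in 1536-well plates got either a single drug or a fixed anchor-drug dose together with five library-drug doses (not always all listed) in √10 steps, by pin tool, on the day after seeding. Nuclei were counted after 5 days, and relative viability is the treated-to-vehicle ratio of nuclei counts. Values are medians of duplicate plates.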

GSK126 + Decitabine = compound: CC[C@H](C)N1C=C(C2=C(C=C(C=C21)C3=CN=C(C=C3)N4CCNCC4)C(=O)NCC5=C(C=C(NC5=O)C)C)C [GSK126] + Nc1ncn([C@H]2C[C@H](O)[C@@H](CO)O2)c(=O)n1 [Decitabine] (partner 2 µM)
Method in brief: as §1

GSK126 + Foretinib = compound: CC[C@H](C)N1C=C(C2=C(C=C(C=C21)C3=CN=C(C=C3)N4CCNCC4)C(=O)NCC5=C(C=C(NC5=O)C)C)C [GSK126] + COc1cc2c(Oc3ccc(NC(=O)C4(C(=O)Nc5ccc(F)cc5)CC4)cc3F)ccnc2cc1OCCCN1CCOCC1 [Foretinib] (partner 0.25 µM)
Method in brief: as §1

MLN4924 + Alpelisib = compound: NS(=O)(=O)OC[C@@H]1C[C@@H](n2ccc3c(N[C@H]4CCc5ccccc54)ncnc32)C[C@@H]1O [MLN4924] + Cc1nc(NC(=O)N2CCC[C@H]2C(N)=O)sc1-c1ccnc(C(C)(C)C(F)(F)F)c1 [Alpelisib] (partner 2 µM)
Method in brief: as §1

Row | Cell Line | relative viability (Carboplatin + Linsitinib; first compound 0.08 µM) | relative viability (Carboplatin + Linsitinib; first compound 0.253 µM) | relative viability (Carboplatin + Linsitinib; first compound 0.8 µM) | relative viability (Carboplatin + Linsitinib; first compound 2.53 µM) | relative viability (Carboplatin + Linsitinib; first compound 8 µM) | relative viability (GSK126 + Decitabine; first compound 0.08 µM) | relative viability (GSK126 + Decitabine; first compound 0.253 µM) | relative viability (GSK126 + Decitabine; first compound 0.8 µM) | relative viability (GSK126 + Decitabine; first compound 2.53 µM) | relative viability (GSK126 + Decitabine; first compound 8 µM) | relative viability (GSK126 + Foretinib; first compound 0.08 µM) | relative viability (GSK126 + Foretinib; first compound 0.253 µM) | relative viability (GSK126 + Foretinib; first compound 0.8 µM) | relative viability (GSK126 + Foretinib; first compound 2.53 µM) | relative viability (GSK126 + Foretinib; first compound 8 µM) | relative viability (MLN4924 + Alpelisib; first compound 0.04 µM) | relative viability (MLN4924 + Alpelisib; first compound 0.1265 µM) | relative viability (MLN4924 + Alpelisib; first compound 0.4 µM) | relative viability (MLN4924 + Alpelisib; first compound 1.265 µM) | relative viability (MLN4924 + Alpelisib; first compound 4 µM)
1 | LOU-NH91 | 1.11 | 0.9 | 0.924 | 0.946 | 0.891 | 0.831 | 0.813 | 0.838 | 0.793 | 0.823 | 0.991 | 0.953 | 0.892 | 0.974 | 0.969 | 0.804 | 1.02 | 0.855 | 0.407 | 0.476
2 | LCLC-103H | 1.15 | 1.1 | 1.05 | 1.21 | 1.04 | 0.795 | 0.855 | 0.797 | 0.737 | 0.759 | 0.86 | 0.744 | 0.738 | 0.926 | 0.814 | 1.14 | 1.18 | 1.12 | 0.234 | 0.342
3 | EMC-BAC-2 | 0.84 | 0.799 | 0.801 | 0.804 | 0.717 | 1.05 | 0.974 | 0.878 | 0.893 | 0.936 | 1.07 | 0.964 | 0.706 | 0.98 | 1.03 | 0.806 | 0.326 | 0.194 | 0.15 | 0.14
4 | HOP-62 | 0.982 | 0.996 | 0.949 | 0.947 | 0.801 | 0.216 | 0.203 | 0.21 | 0.197 | 0.248 | 1.11 | 1.08 | 1.01 | 1.21 | 1.04 | 0.903 | 0.627 | 0.29 | 0.0619 | 0.0676
5 | NCI-H727 | 0.456 | 0.298 | 0.314 | 0.347 | 0.277 | 1.01 | 1.03 | 0.804 | 0.89 | 0.864 | 1.09 | 0.981 | 0.888 | 1.01 | 0.744 | 0.474 | 0.292 | 0.245 | 0.194 | 0.213
6 | COR-L 105 | 0.88 | 1.02 | 0.681 | 0.792 | 0.572 | 0.591 | 0.629 | 0.653 | 0.575 | 0.667 | 1.23 | 1.08 | 0.989 | 0.871 | 0.99 | 0.836 | 0.702 | 0.413 | 0.257 | 0.31
7 | NCI-H358 | 0.826 | 0.806 | 0.796 | 0.772 | 0.751 | 0.231 | 0.2 | 0.207 | 0.229 | 0.218 | 0.742 | 0.629 | 0.66 | 0.859 | 0.786 | 1.01 | 0.899 | 0.34 | 0.189 | 0.162
8 | SK-MES-1 | 1.11 | 1.05 | 1.04 | 1.01 | 0.936 | 0.41 | 0.463 | 0.418 | 0.391 | 0.431 | 1.01 | 0.913 | 0.88 | 0.834 | 0.976 | 0.99 | 0.882 | 0.87 | 0.232 | 0.185
9 | LC-2-ad | 0.903 | 0.859 | 0.808 | 0.752 | 0.721 | 0.779 | 0.866 | 0.717 | 0.876 | 0.78 | 1.08 | 0.971 | 0.915 | 0.995 | 1.07 | 0.834 | 0.729 | 0.41 | 0.153 | 0.0751
10 | H3255 | 0.971 | 0.941 | 0.949 | 0.87 | 0.722 | 0.479 | 0.628 | 0.665 | 0.502 | 0.684 | 1.07 | 0.887 | 0.894 | 0.987 | 0.983 | 0.694 | 0.548 | 0.265 | 0.175 | 0.242
11 | A-427 | 1.07 | 1.08 | 1.03 | 1.02 | 1.12 | 0.586 | 0.63 | 0.565 | 0.559 | 0.568 | 1.31 | 0.999 | 1.07 | 1.1 | 1.13 | 0.728 | 0.334 | 0.28 | 0.183 | 0.2
12 | NCI-H661 | 0.555 | 0.705 | 0.529 | 0.44 | 0.541 | 0.626 | 0.506 | 0.498 | 0.535 | 0.563 | 1.09 | 1.05 | 0.997 | 1.04 | 1.09 | 0.664 | 0.887 | 0.502 | 0.231 | 0.351
13 | NCI-H1993 | 0.773 | 0.798 | 0.779 | 0.817 | 0.701 | 0.686 | 0.597 | 0.575 | 0.555 | 0.605 | 0.704 | 0.812 | 0.726 | 0.845 | 0.859 | 0.808 | 0.555 | 0.596 | 0.569 | 0.541
14 | NCI-H1944 | 1.24 | 1.09 | 1.16 | 1.29 | 0.898 | 0.526 | 0.413 | 0.419 | 0.433 | 0.411 | 0.918 | 0.837 | 0.854 | 0.872 | 0.956 | 1.02 | 1.02 | 1.04 | 0.23 | 0.188
15 | SK-LU-1 | 1.23 | 1.02 | 1.11 | 1.06 | 0.624 | 0.711 | 0.535 | 0.6 | 0.928 | 0.708 | 0.899 | 0.788 | 0.795 | 0.973 | 0.964 | 1.1 | 0.572 | 0.281 | 0.145 | 0.194
